Source: ChEMBL document CHEMBL2401728, “An unexpected Dimroth rearrangement leading to annelated thieno[3,2-d][1,2,3]triazolo[1,5-a]pyrimidines with potent antitumor activity” (Eur J Med Chem, 2013)

Tests used:
Type in all cases: functional
SF-295 [1] = assay: Cytotoxicity against human SF295 cells assessed as cellular growth at 1 uM after 48 hrs by SRB assay relative to control
SF-539 = assay: Cytotoxicity against human SF539 cells assessed as cellular growth at 0.1 uM after 48 hrs by SRB assay relative to control
786-0 = assay: Cytotoxicity against human 786-0 cells assessed as cellular growth at 10 uM after 48 hrs by SRB assay relative to control
NCI-H460 [2] = assay: Cytotoxicity against human NCI-H460 cells after 48 hrs by SRB assay; conditions: NCI-H460, 48 h
SR = assay: Cytotoxicity against human SR cells assessed as cellular growth at 0.01 uM after 48 hrs by SRB assay relative to control
SF-268 = assay: Cytotoxicity against human SF268 cells assessed as cellular growth at 100 uM after 48 hrs by SRB assay relative to control
MDA-MB-435 [3] = assay: Cytotoxicity against human MDA-MB-435 cells assessed as cellular growth at 0.01 uM after 48 hrs by SRB assay relative to control
NCI-H226 = assay: Cytotoxicity against human NCI-H226 cells after 48 hrs by SRB assay; conditions: NCI-H226, 48 h
HCT-116 = assay: Cytotoxicity against human HCT116 cells after 48 hrs by SRB assay; conditions: HCT-116, 48 h
DU-145 [4] = assay: Cytotoxicity against human DU145 cells after 48 hrs by SRB assay; conditions: DU-145, 48 h
TK-10 [5] = assay: Cytotoxicity against human TK10 cells assessed as cellular growth at 1 uM after 48 hrs by SRB assay relative to control
A498 [6] = assay: Cytotoxicity against human A498 cells assessed as cellular growth at 0.01 uM after 48 hrs by SRB assay relative to control
SN12C = assay: Cytotoxicity against human SN12C cells assessed as cellular growth at 0.01 uM after 48 hrs by SRB assay relative to control
RXF 393 = assay: Cytotoxicity against human RXF393 cells assessed as cellular growth at 0.1 uM after 48 hrs by SRB assay relative to control
T47D = assay: Cytotoxicity against human T47D cells assessed as cellular growth at 0.1 uM after 48 hrs by SRB assay relative to control
SNB-75 [7] = assay: Cytotoxicity against human SNB75 cells after 48 hrs by SRB assay; conditions: SNB-75, 48 h
SNB-75 [8] = assay: Cytotoxicity against human SNB75 cells assessed as cellular growth at 1 uM after 48 hrs by SRB assay relative to control
KM12 = assay: Cytotoxicity against human KM12 cells assessed as cellular growth at 0.1 uM after 48 hrs by SRB assay relative to control
SF-295 [9] = assay: Cytotoxicity against human SF295 cells after 48 hrs by SRB assay; conditions: SF-295, 48 h
A498 [10] = assay: Cytotoxicity against human A498 cells assessed as cellular growth at 100 uM after 48 hrs by SRB assay relative to control
MDA-MB-435 [11] = assay: Cytotoxicity against human MDA-MB-435 cells assessed as cellular growth at 0.1 uM after 48 hrs by SRB assay relative to control
NCI-H522 = assay: Cytotoxicity against human NCI-H522 cells assessed as cellular growth at 0.1 uM after 48 hrs by SRB assay relative to control
MCF7 = assay: Cytotoxicity against human MCF7 cells assessed as cellular growth at 100 uM after 48 hrs by SRB assay relative to control
ACHN = assay: Cytotoxicity against human ACHN cells assessed as cellular growth at 100 uM after 48 hrs by SRB assay relative to control
UACC-62 = assay: Cytotoxicity against human UACC62 cells after 48 hrs by SRB assay; conditions: UACC-62, 48 h
BT-549 = assay: Cytotoxicity against human BT549 cells assessed as cellular growth at 0.01 uM after 48 hrs by SRB assay relative to control
TK-10 [12] = assay: Cytotoxicity against human TK10 cells assessed as cellular growth at 100 uM after 48 hrs by SRB assay relative to control
DU-145 [13] = assay: Cytotoxicity against human DU145 cells assessed as cellular growth at 0.1 uM after 48 hrs by SRB assay relative to control
NCI-H460 [14] = assay: Cytotoxicity against human NCI-H460 cells assessed as cellular growth at 0.01 uM after 48 hrs by SRB assay relative to control
CCRF-CEM = assay: Cytotoxicity against human CCRF-CEM cells assessed as cellular growth at 100 uM after 48 hrs by SRB assay relative to control
OVCAR-4 = assay: Cytotoxicity against human OVCAR4 cells after 48 hrs by SRB assay; conditions: OVCAR-4, 48 h
SF-295 [15] = assay: Cytotoxicity against human SF295 cells assessed as cellular growth at 0.01 uM after 48 hrs by SRB assay relative to control
OVCAR-8 = assay: Cytotoxicity against human OVCAR8 cells assessed as cellular growth at 100 uM after 48 hrs by SRB assay relative to control
OVCAR-5 = assay: Cytotoxicity against human OVCAR5 cells assessed as cellular growth at 100 uM after 48 hrs by SRB assay relative to control
A549 = assay: Cytotoxicity against human A549 cells assessed as cellular growth at 0.1 uM after 48 hrs by SRB assay relative to control
[16] = read-out: LC50 (the source's name)
[17] = read-out: pLC50 (the source's name) (converted)

O=C(CCCn1c2c(sc3ccccc32)c(=O)n2nnc(-c3ccccc3)c12)NCCc1c[nH]cn1
Activity (SF-295 [1]): 39%
Activity (SF-539): 1%
Activity (786-0): -89%
GI50 (NCI-H460 [2]; read-out: GI50): 1.59 µM
TGI (NCI-H460 [2]; read-out: TGI): 3.95 µM
GI50 (NCI-H460 [2]; read-out: pGI50 (converted)): 1.58 µM
TGI (NCI-H460 [2]; read-out: pTGI (converted)): 3.98 µM
Activity (SR): 108%
Activity (SF-268): -69%
Activity (MDA-MB-435 [3]): 117%
GI50 (NCI-H226; read-out: GI50): 2.75 µM
CC50 (NCI-H226; [16]): 41.2 µM
TGI (NCI-H226; read-out: TGI): 7.49 µM
GI50 (NCI-H226; read-out: pGI50 (converted)): 2.75 µM
CC50 (NCI-H226; [17]): 40.7 µM
TGI (NCI-H226; read-out: pTGI (converted)): 7.41 µM
GI50 (HCT-116; read-out: GI50): < 0.01 µM
GI50 (HCT-116; read-out: pGI50 (converted)): 0.01 µM
GI50 (DU-145 [4]; read-out: GI50): 1.07 µM
CC50 (DU-145 [4]; [16]): 4.75 µM
TGI (DU-145 [4]; read-out: TGI): 2.26 µM
GI50 (DU-145 [4]; read-out: pGI50 (converted)): 1.07 µM
CC50 (DU-145 [4]; [17]): 4.79 µM
TGI (DU-145 [4]; read-out: pTGI (converted)): 2.24 µM
Activity (TK-10 [5]): 121%
Activity (A498 [6]): 93%
Activity (SN12C): 50%
Activity (RXF 393): 125%
Activity (T47D): 55%
GI50 (SNB-75 [7]; read-out: GI50): 1.95 µM
CC50 (SNB-75 [7]; [16]): 6.32 µM
TGI (SNB-75 [7]; read-out: TGI): 3.51 µM
GI50 (SNB-75 [7]; read-out: pGI50 (converted)): 1.95 µM
CC50 (SNB-75 [7]; [17]): 6.31 µM
TGI (SNB-75 [7]; read-out: pTGI (converted)): 3.55 µM
Activity (SNB-75 [8]): 107%
Activity (KM12): 62%
GI50 (SF-295 [9]; read-out: GI50): 0.456 µM
CC50 (SF-295 [9]; [16]): 5.41 µM
TGI (SF-295 [9]; read-out: TGI): 2.11 µM
GI50 (SF-295 [9]; read-out: pGI50 (converted)): 0.457 µM
CC50 (SF-295 [9]; [17]): 5.37 µM
TGI (SF-295 [9]; read-out: pTGI (converted)): 2.09 µM
Activity (A498 [10]): -97%
Activity (MDA-MB-435 [11]): 69%
Activity (NCI-H522): 42%
Activity (MCF7): -73%
Activity (ACHN): -100%
GI50 (UACC-62; read-out: GI50): 1.81 µM
CC50 (UACC-62; [16]): 7.01 µM
TGI (UACC-62; read-out: TGI): 3.56 µM
GI50 (UACC-62; read-out: pGI50 (converted)): 1.82 µM
CC50 (UACC-62; [17]): 7.08 µM
TGI (UACC-62; read-out: pTGI (converted)): 3.55 µM
Activity (BT-549): 100%
Activity (TK-10 [12]): -79%
Activity (DU-145 [13]): 87%
Activity (NCI-H460 [14]): 111%
Activity (CCRF-CEM): -100%
GI50 (OVCAR-4; read-out: GI50): 1.83 µM
CC50 (OVCAR-4; [16]): 8.02 µM
TGI (OVCAR-4; read-out: TGI): 3.83 µM
GI50 (OVCAR-4; read-out: pGI50 (converted)): 1.82 µM
CC50 (OVCAR-4; [17]): 7.94 µM
TGI (OVCAR-4; read-out: pTGI (converted)): 3.8 µM
Activity (SF-295 [15]): 101%
Activity (OVCAR-8): -40%
Activity (OVCAR-5): -80%
Activity (A549): 99%
